Broadly, the inhibition is the drop in the measured response relative to a control, in per cent. One may read the EC50 as the midpoint of the concentration-response curve. Low readings indicate a more potent agent, high ones a less potent agent.

Where a name gives a salt, the structure may show the parent alone.

The subject of the first assay is human M2 macrophages. The experiment in a line: Inhibition of human M2 macrophage activity, hCCL22 in culture supernatant by ELISA. It is filed as cell-based. Particulars: Macrophage, hCCL22 inhibitory activity at 10 μM, 72 hours. The procedure:
To obtain human M2 macrophages, human monocytes (THP-1 monocyte, CD4 expression) were stabilized in a 96-well plate for 24 hours and then incubated in culture media containing 100 ng/mL phorbal 12-myristate-13-acetate (PMA; Sigma, P8139) for 24 hours to differentiate into M0 macrophages (macrophage-like phenotype). It was confirmed that differentiated M0 macrophages had reduced CD4 expression and expressed CD11b. M0 macrophages in the plate well were washed once with culture media and incubated in culture media containing 25 ng/mL hIL-4 (Peprotech, 200-04-50) and 25 ng/mL hIL-13 (Peprotech, 200-13-50) for 72 hours to differentiate into M2-like macrophages. Test compounds were diluted by concentration in M2 differentiation media and treated simultaneously during a differentiation period of 72 hours. The inhibitory effect of the test compounds on M2 macrophages was determined by measuring hCCL22 in the medium culture supernatant cultured for 72 hours using an ELISA assay (R&D system, DMD00). The results of the activity measurements are represented in Table 3 (EC50), Table 4 ([…] inhibitory activity at 5 μM) and Table 5 (hCCL22 inhibitory activity at 10 μM).
With `CC(=O)c1ccc(-n2c(=O)n3n(c2=O)C2C(=CC3)C(C)(C)Oc3cc(N4CCC4)ccc32)cc1` (stereo not drawn) [Example 141, 2-(4-acetylphenyl)-10-(azetidin-1-yl)-7,7-dimethyl-5,12b-dihydro-1H,7H-chromeno[4,3-c][1,2,4]triazolo[1,2-a]pyridazine-1,3(2H)-dione], the inhibition at 10 µM is 94.2%.

Staying with this assay, now noted: hCCL22 secretion, THP-1 derived M2-like macrophages, compound present during 72 hours of differentiation.
In turn, `CC(=O)c1ccc(-n2c(=O)n3n(c2=O)C2C(=CC3)C(C)(C)Oc3cc(OC(=O)N[C@@H](CCCNC(=N)N)C(=O)O)ccc32)cc1` (stereo partly drawn) [Example 78, (((2-(4-acetylphenyl)-7,7-dimethyl-1,3-dioxo-2,3,5,12b-tetrahydro-1H,7H-chromeno[4,3-c][1,2,4]triazolo[1,2-a]pyridazin-10-yl)oxy)carbonyl)-L-arginine 2,2,2-trifluoroacetic acid] showed an EC50 of 5.2 µM.

For `CC(=O)c1ccc(-n2c(=O)n3n(c2=O)C2C(=CC3)C(C)(C)Oc3cc(OC(=O)N4CCN(C(=O)CN(C)C)CC4)ccc32)cc1` (stereo not drawn) [Example 99, 2-(4-acetylphenyl)-7,7-dimethyl-1,3-dioxo-2,3,5,12b-tetrahydro-1H,7H-chromeno[4,3-c][1,2,4]triazolo[1,2-a]pyridazin-10-yl 4-(dimethylglycyl)piperazine-1-carboxylate hydrochloride], the midpoint of the response, the EC50, lay at 32 µM.

In turn, `CC(=O)c1ccc(-n2c(=O)n3n(c2=O)C2C(=CC3)C(C)(C)Oc3cc(OC(=O)N4C(C)CNCC4C)ccc32)cc1` (stereo not drawn) [Example 100, 2-(4-acetylphenyl)-7,7-dimethyl-1,3-dioxo-2,3,5,12b-tetrahydro-1H,7H-chromeno[4,3-c][1,2,4]triazolo[1,2-a]pyridazin-10-yl 2,6-dimethylpiperazine-1-carboxylate hydrochloride] registered an EC50 of 15.9 µM.

Turning to `CC(=O)c1ccc(-n2c(=O)n3n(c2=O)C2C(=CC3)C(C)(C)Oc3cc(OC(=O)N4C(C)CN(C(=O)[C@@H]5CCCN5)CC4C)ccc32)cc1` (stereo partly drawn) [Example 101, 2-(4-acetylphenyl)-7,7-dimethyl-1,3-dioxo-2,3,5,12b-tetrahydro-1H,7H-chromeno[4,3-c][1,2,4]triazolo[1,2-a]pyridazin-10-yl 2,6-dimethyl-4-prolylpiperazine-1-carboxylate hydrochloride], it took 17.9 µM to reach a half-maximal effect (EC50).

For the compound `CC(=O)c1ccc(-n2c(=O)n3n(c2=O)C2C(=CC3)C(C)(C)Oc3cc(OCP(=O)(O)O)ccc32)cc1` (stereo not drawn) [Example 115, disodium (((2-(4-acetylphenyl)-7,7-dimethyl-1,3-dioxo-2,3,5,12b-tetrahydro-1H,7H-chromeno[4,3-c][1,2,4]triazolo[1,2-a]pyridazin-10-yl)oxy)methyl)phosphonate], the EC50 is greater than 80 µM.

With `CC(=O)c1ccc(-n2c(=O)n3n(c2=O)C2C(=CC3)C(C)(C)Oc3cc(OC(=O)N4CCNCC4(C)C)ccc32)cc1` (stereo not drawn) [Example 118, 2-(4-acetylphenyl)-7,7-dimethyl-1,3-dioxo-2,3,5,12b-tetrahydro-1H,7H-chromeno[4,3-c][1,2,4]triazolo[1,2-a]pyridazin-10-yl 2,2-dimethylpiperazine-1-carboxylate hydrochloride], the half-maximal effective concentration (EC50) worked out at 5.3 µM.

Take `CC(=O)c1ccc(-n2c(=O)n3n(c2=O)C2C(=CC3)C(C)(C)Oc3cc(OC(=O)N4CCN(C(=O)CN(C)C)CC4(C)C)ccc32)cc1` (stereo not drawn) [Example 119, 2-(4-acetylphenyl)-7,7-dimethyl-1,3-dioxo-2,3,5,12b-tetrahydro-1H,7H-chromeno[4,3-c][1,2,4]triazolo[1,2-a]pyridazin-10-yl 4-(dimethylglycyl)-2,2-dimethylpiperazine-1-carboxylate hydrochloride]: the EC50 amounted to 9.5 µM.

`CC(=O)c1ccc(-n2c(=O)n3n(c2=O)C2C(=CC3)C(C)(C)Oc3cc(N4CCC4)ccc32)cc1` (stereo not drawn) [Example 141, 2-(4-acetylphenyl)-10-(azetidin-1-yl)-7,7-dimethyl-5,12b-dihydro-1H,7H-chromeno[4,3-c][1,2,4]triazolo[1,2-a]pyridazine-1,3(2H)-dione] displayed an EC50 of 7.2 µM.

In the case of `CC1(C)Oc2cc(OP(=O)(O)O)ccc2C2C1=CCn1c(=O)n(-c3ccc(C(F)(F)F)cc3)c(=O)n12` (stereo not drawn) [Example 142, 7,7-dimethyl-1,3-dioxo-2-(4-(trifluoromethyl)phenyl)-2,3,5,12b-tetrahydro-1H,7H-chromeno[4,3-c][1,2,4]triazolo[1,2-a]pyridazin-10-yl dihydrogen phosphate], the response was half-maximal at 6.3 µM (EC50).

Compound `CC1(C)Oc2cc(OP(=O)(O)O)ccc2C2C1=CCn1c(=O)n(-c3ccc(F)cc3)c(=O)n12` (stereo not drawn) [Example 143, 2-(4-fluorophenyl)-7,7-dimethyl-1,3-dioxo-2,3,5,12b-tetrahydro-1H,7H-chromeno[4,3-c][1,2,4]triazolo[1,2-a]pyridazin-10-yl dihydrogen phosphate] showed an EC50 of 9.4 µM.

As to `CC1(C)Oc2cc(OP(=O)(O)O)ccc2C2C1=CCn1c(=O)n(-c3ccc(C(C)(C)C)cc3)c(=O)n12` (stereo not drawn) [Example 144, 2-(4-(tert-butyl)phenyl)-7,7-dimethyl-1,3-dioxo-2,3,5,12b-tetrahydro-1H,7H-chromeno[4,3-c][1,2,4]triazolo[1,2-a]pyridazin-10-yl dihydrogen phosphate], the half-maximal effective concentration (EC50) was 5.4 µM.

Take `CN(C)C(=O)Oc1ccc2c(c1)OC(C)(C)C1=CCn3c(=O)n(-c4ccc(C(F)(F)F)cc4)c(=O)n3C12` (stereo not drawn) [Example 145, 7,7-dimethyl-1,3-dioxo-2-(4-(trifluoromethyl)phenyl)-2,3,5,12b-tetrahydro-1H,7H-chromeno[4,3-c][1,2,4]triazolo[1,2-a]pyridazin-10-yl dimethylcarbamate]: a half-maximal effect (EC50) was put at 77.3 µM.

In turn, `CN(C)C(=O)Oc1ccc2c(c1)OC(C)(C)C1=CCn3c(=O)n(-c4ccc(F)cc4)c(=O)n3C12` (stereo not drawn) [Example 146, 2-(4-fluorophenyl)-7,7-dimethyl-1,3-dioxo-2,3,5,12b-tetrahydro-1H,7H-chromeno[4,3-c][1,2,4]triazolo[1,2-a]pyridazin-10-yl dimethylcarbamate] yielded an EC50 greater than 80 µM.

On to `CN(C)C(=O)Oc1ccc2c(c1)OC(C)(C)C1=CCn3c(=O)n(-c4ccc(C(C)(C)C)cc4)c(=O)n3C12` (stereo not drawn) [Example 147, 2-(4-(tert-butyl)phenyl)-7,7-dimethyl-1,3-dioxo-2,3,5,12b-tetrahydro-1H,7H-chromeno[4,3-c][1,2,4]triazolo[1,2-a]pyridazin-10-yl dimethylcarbamate], for which the EC50 is greater than 80 µM.

The next assay deals with melanoma cells (B316F10). The assay can be described thus: Tumor growth inhibition in C57BL/6 syngeneic mouse model implanted with melanoma cells. It is filed as in vivo. The settings on record: Mus musculus, po, 20 mg/kg orally once a day for 9 or 10 days; female C57BL/6 mice with implanted melanoma cells; tumor volume vs control group; read-out: TGI (%). Here is the method:
The tumor growth inhibition effect of benzopyrene derivatives was evaluated in a C57BL/6 mouse tumor model (syngeneic mouse model) in which melanoma cells (B316F10) derived from C57BL/6 mice are implanted.
After the quarantine and acclimation period was over, a cell suspension prepared with 5×10^5 cells/0.1 mL PBS was filled into a disposable syringe and administered in an amount of 0.1 mL PBS/head subcutaneously to the right back of healthy test animals (female C57BL/6, 7 weeks old) for implantation. After cell line implantation, general symptoms were observed once daily during the engraftment and growth period. Animals with no abnormalities in their health and whose tumor volume reached 50 to 100 mm^3 when measured with a digital caliper were selected. Then, based on tumor volume and body weight, the groups were separated so that the average tumor volume per group was 70 to 100 mm^3. Ten (10) animals were separated per group, and 20 mg/kg of benzopyran derivatives were administered orally once a day for 9 or 10 days. Tumor volume was measured once every 2 or 3 days.
The measured tumor volume of the test compound administered groups was compared with that of the control group and is represented in Table 2 as the tumor growth inhibition (TGI, %).
`CC(=O)Oc1ccc2c(c1)OC(C)(C)C1=CCn3c(=O)n(-c4ccc(C(C)=O)cc4)c(=O)n3C12` (stereo not drawn) [Example 60, 2-(4-acetylphenyl)-7,7-dimethyl-1,3-dioxo-2,3,5,12b-tetrahydro-1H,7H-chromeno[4,3-c][1,2,4]triazolo[1,2-a]pyridazin-10-yl acetate]: the inhibition in vivo at 20 mg/kg was 56.5%.

As to `CC(=O)c1ccc(-n2c(=O)n3n(c2=O)C2C(=CC3)C(C)(C)Oc3cc(OP(=O)(O)O)ccc32)cc1` (stereo not drawn) [Example 69, 2-(4-acetylphenyl)-7,7-dimethyl-1,3-dioxo-2,3,5,12b-tetrahydro-1H,7H-chromeno[4,3-c][1,2,4]triazolo[1,2-a]pyridazin-10-yl dihydrogen phosphate], the inhibition in vivo at 20 mg/kg fell in the range of 25 to 66%.

Take `COCCOC(=O)Oc1ccc2c(c1)OC(C)(C)C1=CCn3c(=O)n(-c4ccc(C(C)=O)cc4)c(=O)n3C12` (stereo not drawn) [Example 73, 2-(4-acetylphenyl)-7,7-dimethyl-1,3-dioxo-2,3,5,12b-tetrahydro-1H,7H-chromeno[4,3-c][1,2,4]triazolo[1,2-a]pyridazin-10-yl (2-methoxyethyl) carbonate]: the inhibition in vivo at 20 mg/kg came out at 31%.

For the compound `CC(=O)c1ccc(-n2c(=O)n3n(c2=O)C2C(=CC3)C(C)(C)Oc3cc(OC(=O)N4CCCC4)ccc32)cc1` (stereo not drawn) [Example 74, 2-(4-acetylphenyl)-7,7-dimethyl-1,3-dioxo-2,3,5,12b-tetrahydro-1H,7H-chromeno[4,3-c][1,2,4]triazolo[1,2-a]pyridazin-10-yl pyrrolidine-1-carboxylate], the inhibition in vivo at 20 mg/kg is 25 to 66%.

In the case of `COCCOCCOCCOCCOC(=O)Oc1ccc2c(c1)OC(C)(C)C1=CCn3c(=O)n(-c4ccc(C(C)=O)cc4)c(=O)n3C12` (stereo not drawn) [Example 75, 2-(4-acetylphenyl)-7,7-dimethyl-1,3-dioxo-2,3,5,12b-tetrahydro-1H,7H-chromeno[4,3-c][1,2,4]triazolo[1,2-a]pyridazin-10-yl (2,5,8,11-tetraoxatridecan-13-yl) carbonate], the inhibition in vivo at 20 mg/kg was 25.5%.

`CC(=O)c1ccc(-n2c(=O)n3n(c2=O)C2C(=CC3)C(C)(C)Oc3cc(OC(=O)[C@@H](N)CC(C)C)ccc32)cc1` (stereo partly drawn) [Example 81, 2-(4-acetylphenyl)-7,7-dimethyl-1,3-dioxo-2,3,5,12b-tetrahydro-1H,7H-chromeno[4,3-c][1,2,4]triazolo[1,2-a]pyridazin-10-yl L-leucinate 2,2,2-trifluoroacetic acid]: the inhibition in vivo at 20 mg/kg is 25 to 66%.
